Patent publication US10508085B2, “Compounds and methods for IDO and TDO modulation, and indications therefor” (Plexxikon Inc., priority 2016, dated 2019)

Experiments:
[1] = target: T1, human IDO (IDO1-expressing HEK293 cells) (Homo sapiens, UniProt P14902); experiment: Cell based kynurenine assay, IDO1-expressing HEK293 cell clones; conditions: IDO1-expressing HEK293 cells, 24 hours, geometric mean; read-out: HEK293 IDO1 Kynurenine GMean IC50 (μM) (Cellular Assay)
T1 construct: expressed in transfected cells
Summary of the method: (§1)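 IC50 values come from nonlinear regression of kynurenine reduction in supernatants of human IDO1- or TDO-expressing HEK293 cells incubated 24 h with serially diluted compounds, normalised to cell and media-only controls containing 0.2% DMSO.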

[2] = target: T2, Human Indoleamine 2,3-dioxygenase (IDO) (Homo sapiens, UniProt P14902); experiment: Human IDO enzymatic assay (kynurenine level); assay type: biochemical; conditions: 6 nM IDO, 10 μM L-Trp; geometric mean; read-out: IDO1 GMean: IC50 (μM) (Biochemical Assay)
T2 construct: His tag (N); made in house; host or cells: E. coli
Summary of the method: (§2)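 Reactions were stopped with TCA, converting N-formylkynurenine to kynurenine for quantitation, with IC50 by nonlinear regression. IDO: 6 nM enzyme, 10 μM L-Trp, 20 min RT. TDO: 1 nM enzyme, 350 μM L-Trp, 70 min RT, both in pH 6.5 buffer.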

[3] = target: T3, human TDO (TDO-expressing HEK293 cells) (Homo sapiens, UniProt P48775); experiment: Cell based kynurenine assay, TDO-expressing HEK293 cell clones; conditions: TDO-expressing HEK293 cells, 24 hours, geometric mean; read-out: HEK293 TDO Kynurenine GMean IC50 (μM) (Cellular Assay)
T3 construct: expressed in transfected cells
Summary of the method: as §1

[4] = target: T4, Human Tryptophan 2,3-dioxygenase (TDO) (Homo sapiens, UniProt P48775); experiment: Human TDO enzymatic assay (kynurenine level); assay type: biochemical; conditions: 1 nM TDO, 350 μM L-Trp; geometric mean; read-out: TDO GMean: IC50 (μM) (Biochemical Assay)
T4 construct: His tag (N); made in house; host or cells: E. coli
Summary of the method: as §2

T3 sequence (P48775 whole entry): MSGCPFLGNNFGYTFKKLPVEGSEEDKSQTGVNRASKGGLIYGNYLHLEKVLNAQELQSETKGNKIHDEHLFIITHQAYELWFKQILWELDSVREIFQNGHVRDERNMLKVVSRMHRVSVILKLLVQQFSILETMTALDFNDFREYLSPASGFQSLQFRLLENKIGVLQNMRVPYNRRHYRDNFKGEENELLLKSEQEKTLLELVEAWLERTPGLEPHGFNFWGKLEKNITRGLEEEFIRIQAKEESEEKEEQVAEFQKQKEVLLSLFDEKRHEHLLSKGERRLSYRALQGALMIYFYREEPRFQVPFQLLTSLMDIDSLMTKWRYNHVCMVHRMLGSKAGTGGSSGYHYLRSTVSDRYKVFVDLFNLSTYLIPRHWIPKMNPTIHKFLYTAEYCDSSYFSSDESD
T4 sequence (P48775 whole entry): as above
T1 sequence (P14902 whole entry): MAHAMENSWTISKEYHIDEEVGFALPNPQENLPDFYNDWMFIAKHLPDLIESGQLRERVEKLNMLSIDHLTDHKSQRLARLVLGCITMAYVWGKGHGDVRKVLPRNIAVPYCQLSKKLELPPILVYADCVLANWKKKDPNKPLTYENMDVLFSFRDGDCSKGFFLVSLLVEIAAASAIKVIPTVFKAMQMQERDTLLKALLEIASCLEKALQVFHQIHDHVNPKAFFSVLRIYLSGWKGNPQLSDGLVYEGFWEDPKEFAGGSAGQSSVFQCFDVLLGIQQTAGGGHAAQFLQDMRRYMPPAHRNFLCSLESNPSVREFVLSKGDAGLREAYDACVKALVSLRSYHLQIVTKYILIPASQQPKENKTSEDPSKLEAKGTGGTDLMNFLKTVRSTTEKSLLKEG
T2 sequence (P14902 whole entry): as above

Row | Compound | IC50 [1] [µM] | IC50 [2] [µM] | IC50 [3] [µM] | IC50 [4] [µM]
1 | CC(C)(C1CCN(C(=O)NC(=O)c2ccccc2)CC1)[C@H](O)c1c(F)c(Cl)cc2cn[nH]c12 [Compound P-0514, (S)-N-benzoyl-4-(1-(5-chloro-6-fluoro-1H-indazol-7-yl)-1-hydroxy-2-methylpropan-2-yl)piperidine-1-carboxamide] | 0.0001 to 10 | 0.0001 to 10 | 0.0001 to 10 | 0.0001 to 10
2 | CC(C)(C)OC(=O)N1CCC(C(F)(F)[C@H](O)c2cc(Cl)cc3cn[nH]c23)CC1 [Compound P-0516, tert-butyl (R)-4-(2-(5-chloro-1H-indazol-7-yl)-1,1-difluoro-2-hydroxyethyl) piperidine-1-carboxylate] | 0.0001 to 10 | 0.0001 to 10 | 0.0001 to 10 | 0.0001 to 10
3 | CC(C)(C)OC(=O)N1CCC(C(F)(F)[C@@H](O)c2cc(Cl)cc3cn[nH]c23)CC1 [Compound P-0517, tert-butyl (S)-4-(2-(5-chloro-1H-indazol-7-yl)-1,1-difluoro-2-hydroxyethyl) piperidine-1-carboxylate] | > 10 | 0.0001 to 10 | > 10 | > 200
4 | CC(C)(C1CCN(C(=O)Cc2ccc(Cl)c(F)c2)CC1)[C@H](O)c1cc(Cl)cc2cn[nH]c12 [Compound P-0518, (S)-1-(4-(1-(5-chloro-1H-indazol-7-yl)-1-hydroxy-2-methylpropan-2-yl)piperidin-1-yl)-2-(4-chloro-3-fluorophenyl) ethan-1-one] | 0.0001 to 10 | 0.0001 to 10 | 0.0001 to 10 | 0.0001 to 10
5 | CC(C)(C1CCN(C(=O)Cc2ccc(F)c(Cl)c2)CC1)[C@H](O)c1cc(Cl)cc2cn[nH]c12 [Compound P-0519, (S)-1-(4-(1-(5-chloro-1H-indazol-7-yl)-1-hydroxy-2-methylpropan-2-yl)piperidin-1-yl)-2-(3-chloro-4-fluorophenyl)ethan-1-one] | 0.0001 to 10 | 0.0001 to 10 | 0.0001 to 10 | 0.0001 to 10
6 | O=C(Cc1cccc(Cl)c1)N1CCC(C(F)(F)C(O)c2cc(Cl)cc3cn[nH]c23)CC1 (stereo not shown) [Compound P-0520, 1-(4-(2-(5-chloro-1H-indazol-7-yl)-1,1-difluoro-2-hydroxyethyl)piperidin-1-yl)-2-(3-chlorophenyl) ethan-1-one] | 0.0001 to 10 | 0.0001 to 10 | 0.0001 to 10 | 0.0001 to 10
7 | COc1ccc(CC(=O)N2CCC(C(F)(F)C(O)c3cc(Cl)cc4cn[nH]c34)CC2)cn1 (stereo not shown) [Compound P-0521, 1-(4-(2-(5-chloro-1H-indazol-7-yl)-1,1-difluoro-2-hydroxyethyl)piperidin-1-yl)-2-(6-methoxypyridin-3-yl)ethan-1-one] | 0.0001 to 10 | 0.0001 to 10 | 0.0001 to 10 | 0.0001 to 10
8 | COc1cccc(CC(=O)N2CCC(C(F)(F)C(O)c3cc(Cl)cc4cn[nH]c34)CC2)c1 (stereo not shown) [Compound P-0522, 1-(4-(2-(5-chloro-1H-indazol-7-yl)-1,1-difluoro-2-hydroxyethyl)piperidin-1-yl)-2-(3-methoxyphenyl) ethan-1-one] | 0.0001 to 10 | 0.0001 to 10 | 0.0001 to 10 | 0.0001 to 10

Next, values leading:

Row | IC50 [1] [µM] | IC50 [2] [µM] | IC50 [3] [µM] | IC50 [4] [µM] | Compound
9 | 0.0001 to 10 | 0.0001 to 10 | 0.0001 to 10 | 0.0001 to 10 | CC(C)(C1CCN(C(=O)C2CC2)CC1)[C@H](O)c1c(F)c(Cl)cc2cn[nH]c12 [Compound P-0504, (S)-(4-(1-(5-chloro-6-fluoro-1H-indazol-7-yl)-1-hydroxy-2-methylpropan-2-yl)piperidin-1-yl)(cyclopropyl) methanone]
10 | 0.0001 to 10 | 0.0001 to 10 | 0.0001 to 10 | 0.0001 to 10 | CC(C)(C1CCN(C(=O)CC#N)CC1)[C@H](O)c1c(F)c(Cl)cc2cn[nH]c12 [Compound P-0505, (S)-3-(4-(1-(5-chloro-6-fluoro-1H-indazol-7-yl)-1-hydroxy-2-methylpropan-2-yl)piperidin-1-yl)-3-oxopropanenitrile]
11 | 0.0001 to 10 | 0.0001 to 10 | 0.0001 to 10 | 0.0001 to 10 | COCC(=O)N1CCC(C(C)(C)[C@H](O)c2c(F)c(Cl)cc3cn[nH]c23)CC1 [Compound P-0506, (S)-1-(4-(1-(5-chloro-6-fluoro-1H-indazol-7-yl)-1-hydroxy-2-methylpropan-2-yl)piperidin-1-yl)-2-methoxyethan-1-one]
12 | 0.0001 to 10 | 0.0001 to 10 | 0.0001 to 10 | 0.0001 to 10 | CC(C)(C1CCN(C(=O)C2CCOCC2)CC1)[C@H](O)c1c(F)c(Cl)cc2cn[nH]c12 [Compound P-0507, (S)-(4-(1-(5-chloro-6-fluoro-1H-indazol-7-yl)-1-hydroxy-2-methylpropan-2-yl)piperidin-1-yl)(tetrahydro-2H-pyran-4-yl)methanone]
13 | 0.0001 to 10 | 0.0001 to 10 | 0.0001 to 10 | 0.0001 to 10 | CNC(=O)N1CCC(C(C)(C)[C@H](O)c2c(F)c(Cl)cc3cn[nH]c23)CC1 [Compound P-0508, (S)-4-(1-(5-chloro-6-fluoro-1H-indazol-7-yl)-1-hydroxy-2-methylpropan-2-yl)-N-methylpiperidine-1-carboxamide]
14 | 0.0001 to 10 | 0.0001 to 10 | 0.0001 to 10 | 0.0001 to 10 | CC(C)(C1CCN(C(=O)NC2CC2)CC1)[C@H](O)c1c(F)c(Cl)cc2cn[nH]c12 [Compound P-0509, (S)-4-(1-(5-chloro-6-fluoro-1H-indazol-7-yl)-1-hydroxy-2-methylpropan-2-yl)-N-cyclopropylpiperidine-1-carboxamide]
15 | 0.0001 to 10 | 0.0001 to 10 | 0.0001 to 10 | 0.0001 to 10 | COCCNC(=O)N1CCC(C(C)(C)[C@H](O)c2c(F)c(Cl)cc3cn[nH]c23)CC1 [Compound P-0510, (S)-4-(1-(5-chloro-6-fluoro-1H-indazol-7-yl)-1-hydroxy-2-methylpropan-2-yl)-N-(2-methoxyethyl) piperidine-1-carboxamide]
16 | 0.0001 to 10 | 0.0001 to 10 | 0.0001 to 10 | 0.0001 to 10 | CC(C)(C1CCN(C(=O)NCC(F)(F)F)CC1)[C@H](O)c1c(F)c(Cl)cc2cn[nH]c12 [Compound P-0511, (S)-4-(1-(5-chloro-6-fluoro-1H-indazol-7-yl)-1-hydroxy-2-methylpropan-2-yl)-N-(2,2,2-trifluoroethyl) piperidine-1-carboxamide]
17 | 0.0001 to 10 | 0.0001 to 10 | 0.0001 to 10 | 0.0001 to 10 | CC(C)(C1CCN(C(=O)Nc2ccc(F)cc2)CC1)[C@H](O)c1c(F)c(Cl)cc2cn[nH]c12 [Compound P-0512, (S)-4-(1-(5-chloro-6-fluoro-1H-indazol-7-yl)-1-hydroxy-2-methylpropan-2-yl)-N-(4-fluorophenyl) piperidine-1-carboxamide]
18 | 0.0001 to 10 | 0.0001 to 10 | 0.0001 to 10 | 0.0001 to 10 | CCOC(=O)NC(=O)N1CCC(C(C)(C)[C@H](O)c2c(F)c(Cl)cc3cn[nH]c23)CC1 [Compound P-0513, ethyl (S)-(4-(1-(5-chloro-6-fluoro-1H-indazol-7-yl)-1-hydroxy-2-methylpropan-2-yl)piperidine-1-carbonyl)carbamate]
19 | 0.0001 to 10 | 0.0001 to 10 | 0.0001 to 10 | 0.0001 to 10 | CC(C)(C1CCN(S(C)(=O)=O)CC1)[C@H](O)c1c(F)c(Cl)cc2cn[nH]c12 [Compound P-0515, (S)-1-(5-chloro-6-fluoro-1H-indazol-7-yl)-2-methyl-2-(1-(methylsulfonyl)piperidin-4-yl) propan-1-ol]
